Laboratory results: US20240391923A1, “METHIONINE ADENOSYLTRANSFERASE 2A INHIBITOR FOR TREATING MTAP DELETION-TYPE CANCER” (SUZHOU GENHOUSE BIO CO., LTD., priority 2022, published 2024)
pIC50: −log10 of the molar value. Like-named read-outs stand apart in the source and are kept apart here.

Tests used:
[1] = tested on: SDMA in HCT116-MTAP-knockout cell line; experiment: Cell symmetric dimethylarginine (SDMA) test, In-cell Western, HCT116-MTAP-knockout; assay type: cell-based; settings: Homo sapiens, 96 h
[2] = tested on: SDMA in human colon cancer cell line HCT116; experiment: Cell symmetric dimethylarginine (SDMA) test, In-cell Western, HCT116 (MTAP wild-type); assay type: cell-based; settings: Homo sapiens, HCT-116, 96 h
Outline: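 HCT116 cells treated 4 days at 37° C with compound, top concentration 6 μM, 1:4 dilutions, 6 points, versus DMSO. Fixed cells stained for SDMA with DRAQ5 normalisation; 800/700 nm ratio after background subtraction fitted by non-linear regression for IC50.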

[3] = tested on: Hut-78 cell strain; experiment: Tumor cell proliferation inhibition assay (CellTiter-Glo), Hut-78; assay type: cell-based; settings: Hut-78 cells, 5-day treatment; for IC50: IC50 score, read-out: Tumor cell 5-day relative growth inhibition (Hut-78) (nM), score; for pIC50: IC50 value, read-out: Tumor cell 5-day relative growth inhibition (Hut-78)
Experimental: (§1) After the HCT116-MTAP-knockout (−/−) cell strain, the HCT116-MTAP wild-type(+/+)-cell strain, the DOHH-2 cell strain, or the Hut-78 cell strain was treated with the test compound for 5 days, the ATP level was measured using a CellTiter-Glo kit of Promega to evaluate the inhibition of the test compound against the growth of the tumor cell strain.
(§2) In the present application, the HCT116-MTAP-knockout (−/−) cell strain, the HCT116-MTAP wild-type (+/+)-cell strain, the DOHH-2 cell strain, or the Hut-78 cell strain was seeded into a 96-well cell culture plate at an appropriate cell density. After 24 h, the cells were treated using the test compounds diluted 1:3 fold at the highest concentration of 10 μM for 10 gradients, and a DMSO treatment group was set up separately. The cells were cultured in a 37° C./5% CO2 incubator for 5 days.

[4] = target: MAT2A recombinant protein (Homo sapiens, UniProt P31153); experiment: MAT2A inhibitory activity (malachite green colorimetric enzyme assay); assay type: biochemical
Outline: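 Recombinant human MAT2A with L-methionine and ATP in 50 mM HEPES pH 7.5, 50 mM KCl, 10 mM MgCl2, 10 mM DTT, 60 min at room temperature. Phosphate released detected by malachite green reagent (15 min) at 630 nm. Ten-point 1:3 series from 1000 nM final; IC50 by variable-slope non-linear regression.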

[5] = tested on: HCT116-MTAP-knockout (−/−) cell strain; experiment: Tumor cell proliferation inhibition assay (CellTiter-Glo), HCT116-MTAP-knockout (-/-); assay type: cell-based; settings: Homo sapiens, 120 h, 5-day treatment; for IC50: read-out: Tumor cell 5-day relative growth inhibition (HCT116-MTAP−/−) (nM), score; for pIC50: read-out: Tumor cell 5-day relative growth inhibition (HCT116-MTAP−/−)
Experimental: as §1, §2

[6] = tested on: HCT116-MTAP wild-type (+/+)-cell strain; experiment: Tumor cell proliferation inhibition assay (CellTiter-Glo), HCT116-MTAP wild-type (+/+); assay type: cell-based; settings: Homo sapiens, 120 h, 5-day treatment; for IC50: read-out: Tumor cell 5-day relative growth inhibition (HCT116-MTAP+/+) (nM), score; for pIC50: read-out: Tumor cell 5-day relative growth inhibition (HCT116-MTAP+/+)
Experimental: as §1, §2

[7] = Pharmacokinetic test in mice (IV and PO); assay type: in vivo; settings: BALB/c mice; for AUC (in words) / half-life (T½) (in words): summary of Table 7; for AUC / clearance / bioavailability / half-life / Vd: mouse, plasma; for half-life: read-out: T½ (converted); for Vd: read-out: Vz
[8] = IC50 score class, read-out: Cell 96 h SDMA Inhibition (HCT116-MTAP−/−) (score)
[9] = read-out: Cell 96 h SDMA Inhibition (HCT116-MTAP−/−)
[10] = IC50 score class, read-out: Cell 96 h SDMA Inhibition (HCT116-MTAP+/+) (score)
[11] = read-out: Cell 96 h SDMA inhibition (HCT116-MTAP+/+)
[12] = IC50 score class, read-out: MAT2A Inhibition (score)
[13] = HCT116-MTAP-knockout (−/−) cells, IC50 score
[14] = HCT116-MTAP-knockout (−/−) cells, IC50 value
[15] = HCT116-MTAP wild-type (+/+) cells, IC50 score
[16] = HCT116-MTAP wild-type (+/+) cells, IC50 value

MAT2A recombinant protein, sequence (P31153 whole entry): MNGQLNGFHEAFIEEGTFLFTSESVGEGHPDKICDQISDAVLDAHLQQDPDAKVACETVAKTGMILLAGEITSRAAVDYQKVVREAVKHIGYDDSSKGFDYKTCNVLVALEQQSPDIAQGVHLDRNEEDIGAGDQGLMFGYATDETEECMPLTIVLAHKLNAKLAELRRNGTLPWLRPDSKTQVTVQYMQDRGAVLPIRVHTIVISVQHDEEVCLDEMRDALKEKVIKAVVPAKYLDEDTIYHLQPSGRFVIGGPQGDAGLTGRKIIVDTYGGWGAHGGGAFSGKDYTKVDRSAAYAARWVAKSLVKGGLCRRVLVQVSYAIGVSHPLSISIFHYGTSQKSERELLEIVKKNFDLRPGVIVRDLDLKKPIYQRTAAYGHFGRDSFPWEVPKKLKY

| pIC50 [1, 8] | pIC50 [1, 9] | pIC50 [2, 10] | pIC50 [2, 11] | IC50 ([3]; Homo sapiens, HuT78, 120 h) | pIC50 ([3]; Homo sapiens, HuT78, 120 h) | pIC50 [4, 12] | pIC50 ([4]; read-out: MAT2A Inhibition) | IC50 [5, 13] | pIC50 [5, 14] | IC50 [6, 15] | pIC50 [6, 16] | Structure (SMILES) | also measured |
| --- | --- | --- | --- | --- | --- | --- | --- | --- | --- | --- | --- | --- | --- |
| 6.00 to 6.70 | 6.57 | 5.52 to 6.00 | 5.93 | < 500 nM | 6.69 | > 7.00 | 7.26 |  |  |  |  | Cn1cc2c(n1)c(=O)n(-c1ccnn1C)c1cc(Cl)ccc21 [Compound B58] |  |
| > 6.70 | 7.56 | > 6.70 | 7.27 | < 500 nM | 7.84 | > 7.00 | 7.26 |  |  |  |  | Cc1ncccc1-n1c(=O)c2[nH]ncc2c2ccc(Cl)cc21 [Compound B103] |  |
|  |  |  |  | ≥ 2000 nM | < 5.70 | > 7.00 | 7.27 |  |  |  |  | Cn1cc2c(n1)c(=O)n(Cc1ccn[nH]1)c1nc(C(F)(F)F)ccc21 [Compound B123] |  |
| 6.00 to 6.70 | 6.00 | < 5.52 | 5.16 | ≥ 2000 nM | 5.69 | > 7.00 | 7.09 |  |  |  |  | Cc1cc(-n2c(=O)c3nn(C)cc3c3ccc(Cl)cc32)n(C)n1 [Compound B175] |  |
| 6.00 to 6.70 | 6.58 | 5.52 to 6.00 | 5.88 | 500 to 2000 nM | 6.01 | > 7.00 | 7.61 |  |  |  |  | COc1cc(Cl)cc2c1c1cn(C)nc1c(=O)n2-c1cccnc1 [Compound B176] |  |
|  |  |  |  |  |  |  |  |  |  |  |  | Cc1ncccc1-n1c(=O)c2nn(C)cc2c2ccc(C(F)(F)F)nc21 [Compound B179] | IC50 [3]: ≥ 2000 nM; pIC50 [3]: 5.10 |
| > 6.70 | 7.32 | > 6.70 | 6.89 | < 500 nM | 6.97 |  |  |  |  |  |  | Cn1cc2c(n1)c(=O)n(-c1cccnc1C1CC1)c1nc(C(F)(F)F)ccc21 [Compound B183] |  |
| > 6.70 | 6.98 | 6.00 to 6.70 | 6.31 | < 500 nM | 6.75 |  |  |  |  |  |  | Cn1cc2c(n1)c(=O)n(-c1cccnc1C#N)c1nc(C(F)(F)F)ccc21 [Compound B207] |  |
| > 6.70 | 6.96 | < 5.52 | 5.14 |  |  | > 7.00 | 7.96 | < 500 nM | 6.62 | 500 to 2000 nM | 5.96 | O=c1c2nn(C(F)F)cc2c2ccc(C(F)(F)F)nc2n1-c1cccc2[nH]ncc12 [Compound B245] | AUC (in words) [7]: relatively high; half-life (T½) (in words) [7]: relatively long; AUC ([7]; IV 2 mg/kg): 200 µM·h; clearance ([7]; IV 2 mg/kg): 0.3 mL/min/kg; bioavailability ([7]; IV 2 mg/kg, PO 10 mg/kg): 80%; half-life ([7]; IV 2 mg/kg): 10.8 h; Vd ([7]; IV 2 mg/kg): 0.3 L/kg; AUC ([7]; PO 10 mg/kg): 807 µM·h; half-life ([7]; PO 10 mg/kg): 18 h |
| > 6.70 | 7.17 |  |  |  |  | > 7.00 | 7.62 | < 500 nM | 6.42 | 500 to 2000 nM | 5.79 | Cc1c2c(nn1C(F)F)c(=O)n(-c1cccc3[nH]ncc13)c1nc(C(F)(F)F)ccc21 [Compound B254] | AUC (in words) [7]: relatively high; half-life (T½) (in words) [7]: relatively long; AUC ([7]; IV 2 mg/kg): 245 µM·h; clearance ([7]; IV 2 mg/kg): 0.317 mL/min/kg; bioavailability ([7]; IV 2 mg/kg, PO 10 mg/kg): 126%; half-life ([7]; IV 2 mg/kg): 5.73 h; Vd ([7]; IV 2 mg/kg): 0.2 L/kg; AUC ([7]; PO 10 mg/kg): 1470 µM·h; half-life ([7]; PO 10 mg/kg): 5.79 h |
| > 6.70 | 7.55 |  |  |  |  | > 7.00 | 7.77 | < 500 nM | 7.53 | 500 to 2000 nM | 6.24 | [2H]C([2H])([2H])n1cc2c(n1)c(=O)n(-c1cccc3[nH]ncc13)c1nc(C(F)(F)F)ccc21 [Compound B256] | AUC (in words) [7]: relatively high; half-life (T½) (in words) [7]: relatively long; AUC ([7]; IV 2 mg/kg): 37.8 µM·h; clearance ([7]; IV 2 mg/kg): 2.28 mL/min/kg; bioavailability ([7]; IV 2 mg/kg, PO 10 mg/kg): 175%; half-life ([7]; IV 2 mg/kg): 5.28 h; Vd ([7]; IV 2 mg/kg): 1 L/kg; AUC ([7]; PO 10 mg/kg): 331 µM·h; half-life ([7]; PO 10 mg/kg): 8.61 h |
| > 6.70 | 7.01 | < 5.52 | < 5.00 |  |  | > 7.00 | 7.00 | < 500 nM | 6.55 | 500 to 2000 nM | 6.26 | CN1CCN(c2nccc(Cn3cc4c(n3)c(=O)n(-c3cccc5[nH]ncc35)c3cc(Cl)c(F)cc43)n2)CC1 [Compound B333] |  |
| > 6.70 | 7.73 | < 5.52 | < 5.00 |  |  | > 7.00 | 7.92 | < 500 nM | 6.84 | ≥ 2000 nM | 5.01 | Cn1cnc2c(=O)n(-c3cccnc3C3CC3)c3cc(Cl)c(F)cc3c21 [Compound B336] |  |
| > 6.70 | 8.00 | < 5.52 | < 5.00 |  |  | > 7.00 | 7.59 | 500 to 2000 nM | 6.12 | ≥ 2000 nM | < 5.00 | Cn1cnc2c(=O)n(-c3cccnc3C(F)(F)F)c3cc(Cl)c(F)cc3c21 [Compound B351] |  |
| > 6.70 | 8.21 | < 5.52 | < 5.00 |  |  | > 7.00 | 8.02 | < 500 nM | 7.06 | ≥ 2000 nM | < 5.00 | Cn1cc2c(n1)c(=O)n(-c1cccnc1C1CC1)c1nc(C3CC3)c(F)cc21 [Compound B359] |  |
| > 6.70 | 7.92 | < 5.52 | < 5.00 |  |  | > 7.00 | 7.82 | < 500 nM | 6.89 | ≥ 2000 nM | < 5.00 | O=c1c2nn(C(F)F)cc2c2cc(F)c(C3CC3)nc2n1-c1cccnc1C1CC1 [Compound B361] | AUC ([7]; IV 2 mg/kg): 31.5 µM·h; clearance ([7]; IV 2 mg/kg): 2.42 mL/min/kg; bioavailability ([7]; IV 2 mg/kg, PO 10 mg/kg): 65%; half-life ([7]; IV 2 mg/kg): 6.4 h; Vd ([7]; IV 2 mg/kg): 1.34 L/kg; AUC ([7]; PO 10 mg/kg): 93.4 µM·h; half-life ([7]; PO 10 mg/kg): 8 h |
| 6.00 to 6.70 | 6.26 | < 5.52 | < 5.00 |  |  | > 7.00 | 7.24 | ≥ 2000 nM | < 5.00 | ≥ 2000 nM | < 5.00 | Cn1cc2c(n1)c(=O)n(-c1cccc3ccccc13)c1cc(Cl)c(F)cc21 [Compound B370] |  |
| > 6.70 | 7.59 | < 5.52 | < 5.00 |  |  | > 7.00 | 7.72 |  |  |  |  | N#Cc1cc2c3c[nH]nc3c(=O)n(-c3cccc4[nH]ncc34)c2cc1Cl [Compound B394] | IC50 ([5]; HCT116-MTAP−/− cells, IC50 class score): < 500 nM; pIC50 ([5]; HCT116-MTAP−/− cells): 6.44; IC50 ([6]; HCT116-MTAP+/+ cells, IC50 class score): ≥ 2000 nM; pIC50 ([6]; HCT116-MTAP+/+ cells): 5.16 |
